Data: patent publication US20100168243A1, “Renin Inhibitors” (priority 2007, published 2010)

Molecular target: T1, trypsin-activated recombinant human renin (Homo sapiens, UniProt P00797)
T1 sequence (P00797 67-406): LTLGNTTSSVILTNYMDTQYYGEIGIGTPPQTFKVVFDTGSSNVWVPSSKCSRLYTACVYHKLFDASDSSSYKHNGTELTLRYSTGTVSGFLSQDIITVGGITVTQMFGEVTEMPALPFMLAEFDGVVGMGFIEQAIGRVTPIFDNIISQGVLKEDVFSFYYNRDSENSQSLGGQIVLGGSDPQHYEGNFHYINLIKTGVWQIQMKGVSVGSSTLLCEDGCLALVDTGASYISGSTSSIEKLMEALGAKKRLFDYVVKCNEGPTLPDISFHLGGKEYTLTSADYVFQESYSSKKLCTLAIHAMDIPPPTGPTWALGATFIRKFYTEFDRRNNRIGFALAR
Test: IC50 for renin, fluorescence of quenched peptide substrate (protocols of Example 3 or 4)
Type: biochemical
Conditions: protocols described in Example 3 or 4; class according to the IC50 values; read-out: IC50 for renin, class in words
Experimental: The sequence of this peptide corresponds to the sequence of human angiotensinogen. The following test protocol is used: All reactions are carried out in a flat bottom white opaque microtiter plate. A 4 μL aliquot of 400 μM renin substrate (DABCYL-γ-Abu-[…]EDANS) in 192 μL assay buffer (50 mM BES, 150 mM NaCl, 0.25 mg/mL bovine serum albumin, pH7.0) is added to 4 μL of test compound in DMSO at various concentrations ranging from 10 μM to 1 nM final concentrations. Next, 100 μL of trypsin-activated recombinant human renin (final enzyme concentration of 0.2-2 nM) in assay buffer is added, and the solution is mixed by pipetting. The increase in fluorescence at 495 nm (excitation at 340 nm) is measured for 60-360 min at rt using a Perkin-Elmer Fusion microplate reader. The slope of a linear portion of the plot of fluorescence increases as a function of time is then determined, and the rate is used for calculating percent inhibition in relation to uninhibited control. […]
All reactions are carried out in a low volume, black, 384 well microtiter plate (Greiner Bio-one). […] After 2 hours of reaction at room temperature, the plates were read on a Viewlux™ (Perkin Elmer) with an excitation/emission of 485/530 nm, and using a 505 nm cutoff filter. […]
The IC50 values of the disclosed compounds for renin were determined according to the protocols described in Example 3 or 4. […]

IC50 [nM]	SMILES
0.01 to 50	COCCCCC(O)(CCN(C)C(=O)[C@H]1C[C@@H](N)[C@@H](O)C1)c1cccc(Cl)c1-c1cccc(C)c1 (stereo partly drawn) [Compound 1, (1S,3R,4S)-3-amino-N-[3-(6-chloro-3′-methyl-2-biphenylyl)-3-hydroxy-7-(methyloxy)heptyl]-4-hydroxy-N-methylcyclopentanecarboxamide]
0.01 to 50	COCCCC[C@](O)(CCN(C)C(=O)[C@H]1C[C@@H](N)[C@@H](O)C1)c1cccc(Cl)c1-c1cccc(C)c1 [Compound 11, (1S,3R,4S)-3-amino-N—((S)-3-(6-chloro-3′-methylbiphenyl-2-yl)-3-hydroxy-7-methoxyheptyl)-4-hydroxy-N-methylcyclopentanecarboxamide]
